Measurements reported in PubChem BioAssay (NCI).
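Tested at 5 concentrations; 48 h exposure; 96-well plates; endpoints linearly interpolated, else capped at highest concentration. GI50: concentration for 50% inhibition of growth. TGI is the concentration that stops growth completely.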

What was measured:
Assay in all cases: NCI tumour cell line growth inhibition, 48 h
KM12 colon = tested on: KM12 colon
DMS 114 small cell lung = tested on: DMS 114 small cell lung
DMS 273 small cell lung = tested on: DMS 273 small cell lung
HCT-116 colon = tested on: HCT-116 colon
HL-60(TB) leukemia = tested on: HL-60(TB) leukemia
HOP-92 NSCLC = tested on: HOP-92 NSCLC
K-562 leukemia = tested on: K-562 leukemia
M19-MEL melanoma = tested on: M19-MEL melanoma
NCI-H522 lung = tested on: NCI-H522 lung
P388 leukemia = tested on: P388 leukemia
SNB-78 CNS = tested on: SNB-78 CNS
XF 498 CNS = tested on: XF 498 CNS
ACHN renal = tested on: ACHN renal
BT-549 breast = tested on: BT-549 breast
DU-145 prostate = tested on: DU-145 prostate
HS 578T breast = tested on: HS 578T breast
MDA-MB-231 breast = tested on: MDA-MB-231 breast
PC-3 prostate = tested on: PC-3 prostate
T-47D breast = tested on: T-47D breast

O=C1C(=C([O-])c2ccccc2)C(=O)c2ccccc21.O=C1C(=C([O-])c2ccccc2)C(=O)c2ccccc21.[Ni+2]
GI50 (KM12 colon): 84.6 µM
TGI (KM12 colon): > 100 µM

COc1cc(O)c(Cc2ccccc2O)c(O)c1C(=O)CCc1ccccc1
TGI (DMS 114 small cell lung): 14.5 µM
TGI (DMS 273 small cell lung): 13.1 µM
TGI (HCT-116 colon): 13.7 µM
TGI (HL-60(TB) leukemia): 20 µM
TGI (HOP-92 NSCLC): 10.8 µM
TGI (K-562 leukemia): 20 µM
TGI (KM12 colon): 25.3 µM
TGI (M19-MEL melanoma): 20.5 µM
TGI (NCI-H522 lung): 9.21 µM
TGI (P388 leukemia): 13.5 µM
TGI (SNB-78 CNS): 31.4 µM
TGI (XF 498 CNS): 7.76 µM

COC(=O)c1c(O)ccc2c1c1c(n2Cc2cccc(C)c2)C(=O)c2ccccc2C1
TGI (ACHN renal): > 75 µM
TGI (BT-549 breast): > 75 µM
TGI (DU-145 prostate): > 75 µM
TGI (HCT-116 colon): 16.7 µM
TGI (HL-60(TB) leukemia): > 75 µM
TGI (HOP-92 NSCLC): > 75 µM
TGI (HS 578T breast): > 75 µM
TGI (K-562 leukemia): > 75 µM
TGI (MDA-MB-231 breast): > 75 µM
TGI (PC-3 prostate): 27.6 µM
TGI (T-47D breast): 32.7 µM
